The NIST ThermoML archive (doi:10.1021/acs.jced.9b00752)

Test: mn = molality of the nth substance listed, in mol/kg
Settings: 100 kPa, Liquid, Vibrating tube method

N[C@@H](Cc1ccccc1)C(=O)O [L-phenylalanine] + O
mass density [kg/m3]
Settings	273.65 K	274.15 K	274.65 K	275.15 K	275.65 K	276.15 K	276.65 K	277.15 K	277.65 K	278.15 K
m1 = 0.0036	1000.05	1000.08	1000.1	1000.12	1000.13	1000.14	1000.14	1000.14	1000.14	1000.13
m1 = 0.011	1000.4	1000.42	1000.45	1000.46	1000.48	1000.49	1000.49	1000.49	1000.49	1000.48
m1 = 0.0183	1000.75	1000.77	1000.79	1000.81	1000.82	1000.83	1000.83	1000.83	1000.83	1000.82
m1 = 0.033	1001.44	1001.46	1001.48	1001.49	1001.5	1001.51	1001.51	1001.51	1001.5	1001.49
m1 = 0.0443	1002.02	1002.04	1002.06	1002.07	1002.08	1002.09	1002.09	1002.09	1002.08	1002.07
m1 = 0.0536	1002.42	1002.44	1002.46	1002.47	1002.48	1002.48	1002.48	1002.47	1002.47	1002.46
m1 = 0.0623	1002.84	1002.86	1002.87	1002.88	1002.89	1002.89	1002.89	1002.89	1002.88	1002.87
m1 = 0.074	1003.38	1003.4	1003.42	1003.43	1003.43	1003.43	1003.43	1003.43	1003.42	1003.41
m1 = 0.0855	1003.95	1003.96	1003.98	1003.99	1003.99	1004	1003.99	1003.98	1003.97	1003.96
m1 = 0.0981	1004.56	1004.58	1004.59	1004.6	1004.6	1004.6	1004.59	1004.59	1004.57	1004.56
m1 = 0.1158	1005.44	1005.46	1005.47	1005.47	1005.47	1005.47	1005.46	1005.45	1005.44	1005.42
